Reference: PubChem BioAssay (NCI)
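Step 1: Grow cells in 96-well plates. Step 2: Expose to compound for 48 hours at 5 concentrations. Step 3: Interpolate endpoints linearly; if unreached, use highest concentration. The concentration for 50% growth inhibition is given as GI50. TGI is the concentration that stops growth completely.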

Assays:
Assay in all cases: DTP human tumour cell line panel, 48 h
786-0 renal = test system: 786-0 renal
A498 renal = test system: A498 renal
A549 NSCLC = test system: A549 NSCLC
ACHN renal = test system: ACHN renal
BT-549 breast = test system: BT-549 breast
CCRF-CEM leukemia = test system: CCRF-CEM leukemia
COLO 205 colon = test system: COLO 205 colon
DU-145 prostate = test system: DU-145 prostate
EKVX NSCLC = test system: EKVX NSCLC
HCC-2998 colon = test system: HCC-2998 colon
HCT-116 colon = test system: HCT-116 colon
HCT-15 colon = test system: HCT-15 colon
HL-60(TB) leukemia = test system: HL-60(TB) leukemia
HOP-92 NSCLC = test system: HOP-92 NSCLC
HS 578T breast = test system: HS 578T breast
HT29 colon = test system: HT29 colon
IGROV1 ovarian = test system: IGROV1 ovarian
K-562 leukemia = test system: K-562 leukemia
KM12 colon = test system: KM12 colon
LOX IMVI melanoma = test system: LOX IMVI melanoma
M14 melanoma = test system: M14 melanoma
MALME-3M melanoma = test system: MALME-3M melanoma
MCF7 breast = test system: MCF7 breast
MDA-MB-231 breast = test system: MDA-MB-231 breast
MDA-MB-435 = test system: MDA-MB-435
MOLT-4 leukemia = test system: MOLT-4 leukemia
NCI-H226 lung = test system: NCI-H226 lung
NCI-H23 lung = test system: NCI-H23 lung
NCI-H460 lung = test system: NCI-H460 lung
NCI-H522 lung = test system: NCI-H522 lung
NCI/ADR-RES ovarian = test system: NCI/ADR-RES ovarian
OVCAR-3 ovarian = test system: OVCAR-3 ovarian
OVCAR-4 ovarian = test system: OVCAR-4 ovarian
OVCAR-5 ovarian = test system: OVCAR-5 ovarian
OVCAR-8 ovarian = test system: OVCAR-8 ovarian
PC-3 prostate = test system: PC-3 prostate
RPMI-8226 leukemia = test system: RPMI-8226 leukemia
RXF 393 renal = test system: RXF 393 renal
SF-268 CNS = test system: SF-268 CNS
SF-295 CNS = test system: SF-295 CNS
SF-539 CNS = test system: SF-539 CNS
SK-MEL-2 melanoma = test system: SK-MEL-2 melanoma
SK-MEL-28 melanoma = test system: SK-MEL-28 melanoma
SK-MEL-5 melanoma = test system: SK-MEL-5 melanoma
SK-OV-3 ovarian = test system: SK-OV-3 ovarian
SN12C renal = test system: SN12C renal
SNB-19 CNS = test system: SNB-19 CNS
SNB-75 CNS = test system: SNB-75 CNS
SR leukemia = test system: SR leukemia
SW-620 colon = test system: SW-620 colon
T-47D breast = test system: T-47D breast
TK-10 renal = test system: TK-10 renal
U251 CNS = test system: U251 CNS
UACC-257 melanoma = test system: UACC-257 melanoma
UACC-62 melanoma = test system: UACC-62 melanoma
UO-31 renal = test system: UO-31 renal

Cc1nccc2c3ccc(OCc4cn(-c5ccc(Cl)cc5)nn4)cc3n(CCCc3ccccc3)c12
GI50 (786-0 renal): 0.649 µM | TGI (786-0 renal): 1.39 µM | GI50 (A498 renal): > 33.3 µM | TGI (A498 renal): > 33.3 µM | GI50 (A549 NSCLC): 2.3 µM | TGI (A549 NSCLC): > 33.3 µM | GI50 (ACHN renal): 1.57 µM | TGI (ACHN renal): 8.5 µM | GI50 (BT-549 breast): 7.35 µM | TGI (BT-549 breast): 19.6 µM | GI50 (CCRF-CEM leukemia): 1.75 µM | TGI (CCRF-CEM leukemia): > 33.3 µM | GI50 (COLO 205 colon): 4.22 µM | TGI (COLO 205 colon): > 33.3 µM | GI50 (DU-145 prostate): 4.33 µM | TGI (DU-145 prostate): > 33.3 µM | GI50 (EKVX NSCLC): 12.3 µM | TGI (EKVX NSCLC): > 33.3 µM | GI50 (HCC-2998 colon): 6.13 µM | TGI (HCC-2998 colon): > 33.3 µM | GI50 (HCT-116 colon): 2.14 µM | TGI (HCT-116 colon): > 33.3 µM | GI50 (HCT-15 colon): 2.57 µM | TGI (HCT-15 colon): > 33.3 µM | GI50 (HL-60(TB) leukemia): 1.88 µM | TGI (HL-60(TB) leukemia): 8.37 µM | GI50 (HOP-92 NSCLC): 4.98 µM | TGI (HOP-92 NSCLC): 21.3 µM | GI50 (HS 578T breast): 0.844 µM | TGI (HS 578T breast): 2.48 µM | GI50 (HT29 colon): 3.07 µM | TGI (HT29 colon): > 33.3 µM | GI50 (IGROV1 ovarian): 6.93 µM | TGI (IGROV1 ovarian): > 33.3 µM | GI50 (K-562 leukemia): 2.96 µM | TGI (K-562 leukemia): > 33.3 µM | GI50 (KM12 colon): 6.21 µM | TGI (KM12 colon): > 33.3 µM | GI50 (LOX IMVI melanoma): 1.08 µM | TGI (LOX IMVI melanoma): 4.88 µM | GI50 (M14 melanoma): 0.616 µM | TGI (M14 melanoma): 1.26 µM | GI50 (MALME-3M melanoma): 0.745 µM | TGI (MALME-3M melanoma): 2.79 µM | GI50 (MCF7 breast): 1.49 µM | TGI (MCF7 breast): > 33.3 µM | GI50 (MDA-MB-231 breast): 6.83 µM | TGI (MDA-MB-231 breast): > 33.3 µM | GI50 (MDA-MB-435): 2 µM | TGI (MDA-MB-435): > 33.3 µM | GI50 (MOLT-4 leukemia): 6.97 µM | TGI (MOLT-4 leukemia): > 33.3 µM | GI50 (NCI-H226 lung): 1.72 µM | TGI (NCI-H226 lung): 9.12 µM | GI50 (NCI-H23 lung): 19.7 µM | TGI (NCI-H23 lung): > 33.3 µM | GI50 (NCI-H460 lung): 2.74 µM | TGI (NCI-H460 lung): 17.9 µM | GI50 (NCI-H522 lung): > 33.3 µM | TGI (NCI-H522 lung): > 33.3 µM | GI50 (NCI/ADR-RES ovarian): 0.644 µM | TGI (NCI/ADR-RES ovarian): 1.72 µM | GI50 (OVCAR-3 ovarian): 6.68 µM | TGI (OVCAR-3 ovarian): 17.7 µM | GI50 (OVCAR-4 ovarian): 4.34 µM | TGI (OVCAR-4 ovarian): 10.4 µM | GI50 (OVCAR-5 ovarian): 7.34 µM | TGI (OVCAR-5 ovarian): > 33.3 µM | GI50 (OVCAR-8 ovarian): 1.21 µM | TGI (OVCAR-8 ovarian): 4.22 µM | GI50 (PC-3 prostate): 2.42 µM | TGI (PC-3 prostate): 16.6 µM | GI50 (RPMI-8226 leukemia): 2.45 µM | TGI (RPMI-8226 leukemia): > 33.3 µM | GI50 (RXF 393 renal): 4.45 µM | TGI (RXF 393 renal): 11.6 µM | GI50 (SF-268 CNS): 4.66 µM | TGI (SF-268 CNS): 17.5 µM | GI50 (SF-295 CNS): 4.81 µM | TGI (SF-295 CNS): 12.7 µM | GI50 (SF-539 CNS): 4.24 µM | TGI (SF-539 CNS): 10.6 µM | GI50 (SK-MEL-2 melanoma): > 33.3 µM | TGI (SK-MEL-2 melanoma): > 33.3 µM | GI50 (SK-MEL-28 melanoma): 1.3 µM | TGI (SK-MEL-28 melanoma): 5.71 µM | GI50 (SK-MEL-5 melanoma): 25.8 µM | TGI (SK-MEL-5 melanoma): > 33.3 µM | GI50 (SK-OV-3 ovarian): > 33.3 µM | TGI (SK-OV-3 ovarian): > 33.3 µM | GI50 (SN12C renal): 8.81 µM | TGI (SN12C renal): 31.2 µM | GI50 (SNB-19 CNS): > 33.3 µM | TGI (SNB-19 CNS): > 33.3 µM | GI50 (SNB-75 CNS): 0.565 µM | TGI (SNB-75 CNS): 1.57 µM | GI50 (SR leukemia): 0.789 µM | TGI (SR leukemia): 2.25 µM | GI50 (SW-620 colon): 2.2 µM | TGI (SW-620 colon): > 33.3 µM | GI50 (T-47D breast): 20.6 µM | TGI (T-47D breast): > 33.3 µM | GI50 (TK-10 renal): 2 µM | TGI (TK-10 renal): > 33.3 µM | GI50 (U251 CNS): 8.82 µM | TGI (U251 CNS): > 33.3 µM | GI50 (UACC-257 melanoma): 4.58 µM | TGI (UACC-257 melanoma): 13.4 µM | GI50 (UACC-62 melanoma): 1.89 µM | TGI (UACC-62 melanoma): 7.43 µM | GI50 (UO-31 renal): 0.545 µM | TGI (UO-31 renal): 1.37 µM
